ChEMBL document CHEMBL1201862, “PubChem BioAssay data set” (2004)
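Results reflect a 48-hour exposure of cells in 96-well plates to compound at five concentrations. GI50: concentration for 50% inhibition of growth.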 Activity calls are given as the source filed them. Cut-off read from the data, not from the text of the source: active = GI50 up to about 1.1 µM and inactive = higher.

What was measured:
Assay in all cases: inhibition of tumour cell growth, NCI panel, 48 h
DMS-273 = test system: DMS-273
KM-20L2 = test system: KM-20L2
RXF 631 = test system: RXF 631
HOP-18 = test system: HOP-18
DLD-1 = test system: DLD-1
M19-MEL = test system: M19-MEL
LXFL 529 = test system: LXFL 529
SNB-78 = test system: SNB-78
XF498 = test system: XF498

SMILES | GI50 (DMS-273) | GI50 (KM-20L2) | GI50 (RXF 631) | GI50 (HOP-18) | GI50 (DLD-1) | GI50 (M19-MEL) | GI50 (LXFL 529) | GI50 (SNB-78) | GI50 (XF498)
CCOC(=O)c1c2ccc(/C=C/c3ccccn3)ccc-2c(C(=O)OCC)c1N | > 100 µM (inactive) | > 100 µM (inactive) | > 100 µM (inactive) | > 100 µM (inactive) | > 100 µM (inactive) | > 100 µM (inactive) | 72.6 µM (inactive) | – | –
C=C(Br)N(CC)CC | > 100 µM (inactive) | > 100 µM (inactive) | > 100 µM (inactive) | > 100 µM (inactive) | > 100 µM (inactive) | > 100 µM (inactive) | > 100 µM (inactive) | > 100 µM (inactive) | –
CC1=CC(=O)NCCN1C | > 100 µM (inactive) | > 100 µM (inactive) | – | > 100 µM (inactive) | > 100 µM (inactive) | > 100 µM (inactive) | > 100 µM (inactive) | > 100 µM (inactive) | > 100 µM (inactive)
CC(C)OC(=O)C1=C(O)c2ccccc2S(=O)(=O)N1 | > 100 µM (inactive) | > 100 µM (inactive) | > 100 µM (inactive) | > 100 µM (inactive) | > 100 µM (inactive) | > 100 µM (inactive) | > 100 µM (inactive) | > 100 µM (inactive) | > 100 µM (inactive)
CC(=O)N1C/C(=C\c2ccccc2)C(=O)/C(=C/c2ccccc2)C1 | 4.85 µM (inactive) | 15.6 µM (inactive) | – | 18.8 µM (inactive) | 8.71 µM (inactive) | 3.34 µM (inactive) | 9.4 µM (inactive) | 17.2 µM (inactive) | 23.8 µM (inactive)
Cc1c2cc[n+](C)cc2c(C)c2c1[nH]c1ccc(Cl)cc12 | 1.76 µM (inactive) | 2.58 µM (inactive) | – | 3.78 µM (inactive) | 1.05 µM (active) | 0.993 µM (active) | 0.286 µM (active) | 0.288 µM (active) | –
CCOc1ccccc1NC(=O)C(=O)CC(=O)C1=C(C)Nc2ccccc2S1 | > 100 µM (inactive) | > 100 µM (inactive) | – | – | > 100 µM (inactive) | > 100 µM (inactive) | > 100 µM (inactive) | > 100 µM (inactive) | > 100 µM (inactive)
C/C(CC(=O)Nc1ccccc1[N+](=O)[O-])=N\NC(N)=O | – | > 100 µM (inactive) | > 100 µM (inactive) | – | > 100 µM (inactive) | > 100 µM (inactive) | > 100 µM (inactive) | > 100 µM (inactive) | > 100 µM (inactive)
CN(C)C(=S)N=C(Nc1ccccc1)Nc1ccccc1 | > 100 µM (inactive) | > 100 µM (inactive) | – | – | – | > 100 µM (inactive) | – | > 100 µM (inactive) | –
OCc1c(-c2cccc3ccccc23)sc(-c2cccc3ccccc23)c1CO | 15.2 µM (inactive) | 11.7 µM (inactive) | 18.2 µM (inactive) | 13.5 µM (inactive) | – | 15.5 µM (inactive) | 14 µM (inactive) | 16.2 µM (inactive) | 6.89 µM (inactive)
COc1cc([C@@H]2c3cc4c(cc3[C@@H](NCc3ccccc3)C3COC(=O)[C@@H]32)OCO4)cc(OC)c1O (some centres undefined) | 1.68 µM (inactive) | 17.9 µM (inactive) | 3.44 µM (inactive) | – | 21.6 µM (inactive) | 14.1 µM (inactive) | 19.3 µM (inactive) | 34.9 µM (inactive) | 13.2 µM (inactive)
COc1ccc(C(=O)O)c(Cc2cccc3ccccc23)c1 | > 100 µM (inactive) | > 100 µM (inactive) | > 100 µM (inactive) | > 100 µM (inactive) | > 100 µM (inactive) | > 100 µM (inactive) | > 100 µM (inactive) | – | –
O=C(CC(=O)c1cccc2ccccc12)C(=O)Nc1ccc(Cl)cc1 | > 100 µM (inactive) | > 100 µM (inactive) | > 100 µM (inactive) | > 100 µM (inactive) | > 100 µM (inactive) | > 100 µM (inactive) | > 100 µM (inactive) | > 100 µM (inactive) | > 100 µM (inactive)
COC(=O)[C@@H]1c2cc3c(c(O)c2[C@@H](OC2OC(C)C(OC)C(C)(OC)C2OC)C[C@]1(C)O)C(=O)c1c(O)cc2c(c1C3=O)O[C@H]1O[C@]2(C)[C@H](O)[C@@H](N(C)C)[C@@H]1O (some centres undefined) | 0.01 µM (active) | 0.00745 µM (active) | – | 0.00323 µM (active) | 0.00146 µM (active) | 0.000973 µM (active) | 0.000391 µM (active) | 0.00306 µM (active) | 0.00177 µM (active)
CC[P+](C)(C)c1ccccc1 | > 100 µM (inactive) | > 100 µM (inactive) | – | 5 µM (inactive) | > 100 µM (inactive) | > 100 µM (inactive) | > 100 µM (inactive) | 58.1 µM (inactive) | > 100 µM (inactive)
c1ccc(NC[Si]23OCCN(CCO2)CCO3)cc1 | > 100 µM (inactive) | – | > 100 µM (inactive) | > 100 µM (inactive) | > 100 µM (inactive) | > 100 µM (inactive) | > 100 µM (inactive) | > 100 µM (inactive) | –
CC1/C(=N\O)CC(c2ccccc2)N(C)C1c1ccccc1 (centres undefined) | > 100 µM (inactive) | > 100 µM (inactive) | > 100 µM (inactive) | – | > 100 µM (inactive) | > 100 µM (inactive) | > 100 µM (inactive) | > 100 µM (inactive) | –
C#CCN(Cc1ccc2nc(-c3ccccc3)c(Cl)nc2c1)c1ccc(Cl)c(Cl)c1 | > 100 µM (inactive) | > 100 µM (inactive) | – | > 100 µM (inactive) | > 100 µM (inactive) | > 100 µM (inactive) | > 100 µM (inactive) | 38.1 µM (inactive) | > 100 µM (inactive)
CC(=O)[O-].[Zn+].c1ccc(/C(=N\Nc2ccccn2)c2ccccn2)cc1 | 0.309 µM (active) | 0.01 µM (active) | – | 0.247 µM (active) | 0.0231 µM (active) | 0.394 µM (active) | 0.0429 µM (active) | 2.38 µM (inactive) | –
NC(=S)N/N=C/C(O[C@@H](/C=N/NC(N)=S)CO)n1cnc2c(N)ncnc21 (some centres undefined) | > 55.1 µM (inactive) | > 61.1 µM (inactive) | > 100 µM (inactive) | > 48.8 µM (inactive) | – | 97.1 µM (inactive) | > 78.2 µM (inactive) | > 100 µM (inactive) | > 100 µM (inactive)
O=[N+]([O-])c1ccc(Sc2c3ccccc3nc3cc(Cl)ccc23)cc1 | – | > 10 µM (inactive) | > 10 µM (inactive) | > 10 µM (inactive) | > 10 µM (inactive) | > 10 µM (inactive) | > 10 µM (inactive) | > 10 µM (inactive) | 32.7 µM (inactive)
CC(C)(Oc1ccc2c(=O)cc(-c3ccc(Cl)cc3)oc2c1)C(=O)Nc1c(Cl)cccc1Cl | > 100 µM (inactive) | > 100 µM (inactive) | – | > 100 µM (inactive) | > 100 µM (inactive) | > 100 µM (inactive) | > 100 µM (inactive) | > 100 µM (inactive) | > 100 µM (inactive)
CCC12CCCN(Cc3ccccc3)C1c1c(n(C)c3ccccc13)CC2 (centres undefined) | 166 µM (inactive) | 103 µM (inactive) | – | – | > 253 µM (inactive) | 170 µM (inactive) | 167 µM (inactive) | – | –
CO[C@H](C(=O)O[C@H]1C(=O)N2CCC3CCC1C32C)c1ccccc1 (some centres undefined) | – | > 100 µM (inactive) | – | > 100 µM (inactive) | > 100 µM (inactive) | > 100 µM (inactive) | > 100 µM (inactive) | > 100 µM (inactive) | > 100 µM (inactive)
O=C(O/N=C1/CCC/C1=C\c1ccccc1)c1ccccc1 | > 100 µM (inactive) | 58.3 µM (inactive) | – | > 100 µM (inactive) | 43.8 µM (inactive) | – | 28.9 µM (inactive) | > 100 µM (inactive) | –
CC(=O)Oc1c2c(c(OC(C)=O)c3c1n(C(C)=O)c1ccccc1n3C(C)=O)n(C(C)=O)c1ccccc1n2C(C)=O | 3.24 µM (inactive) | – | – | – | 3.04 µM (inactive) | 1.95 µM (inactive) | 2.74 µM (inactive) | – | –
COc1cc(C2c3cc4c(cc3C(NCC(O)CO)C3COC(=O)[C@H]23)OCO4)cc(OC)c1OC (some centres undefined) | 0.292 µM (active) | 0.143 µM (active) | – | > 100 µM (inactive) | 0.531 µM (active) | 0.927 µM (active) | 0.163 µM (active) | 0.0944 µM (active) | 0.372 µM (active)
COc1cc2cnc3c4cc(OCc5ccccc5)ccc4ccc3c2cc1OC | – | 80 µM (inactive) | 14.1 µM (inactive) | 18.4 µM (inactive) | 18.4 µM (inactive) | 27.4 µM (inactive) | 18.8 µM (inactive) | 19.1 µM (inactive) | –
CN1CCN(Cc2nc3cccc4c3c([n+]2[O-])-c2ccccc2-4)CC1 | 44.1 µM (inactive) | 36.4 µM (inactive) | 60.4 µM (inactive) | 37.2 µM (inactive) | 54.5 µM (inactive) | 34 µM (inactive) | 38.3 µM (inactive) | 15.1 µM (inactive) | –
O=C(NC1C(=O)NNC1c1cccc([N+](=O)[O-])c1)c1ccccc1 (centres undefined) | – | > 100 µM (inactive) | > 100 µM (inactive) | > 100 µM (inactive) | > 100 µM (inactive) | > 100 µM (inactive) | > 100 µM (inactive) | > 100 µM (inactive) | > 100 µM (inactive)
